Source: patent US20100120050A1, “Biomarkers For Assessing Altherosclerotic Potential” (ENTELOS, INC., priority 2008, published 2010)
Read-outs that look alike come from different tables or passages of the source.

Tests used:
[1] = tested on: hepatic genes (liver)
Description: While the molecular target for PPARγ is not in the liver, it represents the effects of changes in metabolism of the whole animal, which impact liver lipoprotein production and clearance.
Male Sprague-Dawley (Crl:CD® (SD)(IGS)BR) rats (Charles River Laboratories, Portage, Mich.), weight matched, 7 to 8 weeks of age, were housed individually in hanging, stainless steel, wire-bottom cages in a temperature (66-77° F.), light (12-hour dark/light cycle) and humidity (30-70%) controlled room. Water and rodent diet were available ad libitum throughout the 5 day acclimatization period and during the 5 day treatment period. Housing and treatment of the animals were in accordance with regulations outlined in the USDA Animal Welfare Act (9 CFR Parts 1, 2 and 3).
Rats (three per group) were dosed daily at either a low or high dose. […] Animals were necropsied on days 0.25, 1, 3, and 5. Up to 13 tissues (e.g., liver, kidney, heart, bone marrow, blood, spleen, brain, intestine, glandular and nonglandular stomach, lung, muscle, and gonads) were collected for histopathological evaluation and microarray expression profiling on the Affymetrix Rat Whole Genome RG230 v2 platform. In addition, a clinical pathology panel consisting of 37 clinical chemistry and hematology parameters was generated from blood samples collected on days 3 and 5.
Gene expression profiling, data processing and quality control were performed using protocols recommended by. Briefly, liver samples from 3 rats were chosen at random from each treatment and control group for each timepoint for expression profile analysis on the Affymetrix Rat Whole Genome RG230 v2 microarray (Affymetrix, Santa Clara, Calif.). Log transformed signal data for all probes were array-wise normalized using the Affymetrix MASS algorithm. Expression log ratios of base 10 (log(10) ratios) were computed as the difference between the logs of the averaged normalized experimental signals and the averaged normalized time-matched vehicle control signals for each gene.

[2] = clinical trials and post-marketing; cited from earlier work

Compound: CN(CCOc1ccc(CC2SC(=O)NC2=O)cc1)c1ccccn1 (stereo not shown) [rosiglitazone]
- Average Log (10) Ratio: L-3-hydroxyacyl-Coenzyme A dehydrogenase, short chain ([1]; rat liver, probe AA891362, Rn.92789, oral gavage, experiments of Table 3): −0.205
- Average Log (10) Ratio: acetyl-coenzyme A acetyltransferase 1 ([1]; rat liver, probe AA899304, Rn.4054, oral gavage, experiments of Table 3): 0.546
- Average Log (10) Ratio: transferrin ([1]; rat liver, probe AA945548, Rn.91296, oral gavage, experiments of Table 3): −0.376
- Average Log (10) Ratio: sterol regulatory element binding factor 1 ([1]; rat liver, probe AF286470, Rn.801, oral gavage, experiments of Table 3): −0.464
- Average Log (10) Ratio: CCAAT/enhancer binding protein (C/EBP), delta ([1]; rat liver, probe AI176576, Rn.6975, oral gavage, experiments of Table 3): −0.407
- Average Log (10) Ratio: fatty acid synthase ([1]; rat liver, probe AI179334, Rn.9486, oral gavage, experiments of Table 3): −0.182
- Average Log (10) Ratio: peroxisome proliferator activated receptor alpha ([1]; rat liver, probe AI385341, Rn.9753, oral gavage, experiments of Table 3): 0.461
- Average Log (10) Ratio: perilipin ([1]; rat liver, probe AI406700, Rn.9737, oral gavage, experiments of Table 3): 0.137
- Average Log (10) Ratio: monoglyceride lipase ([1]; rat liver, probe AI713204, Rn.40396, oral gavage, experiments of Table 3): 0.439
- Average Log (10) Ratio: phosphatidylinositol 3-kinase, C2 domain containing, gamma polypeptide ([1]; rat liver, probe AW526669, Rn.169550, oral gavage, experiments of Table 3): 0.692
- Average Log (10) Ratio: monoglyceride lipase ([1]; rat liver, probe AY081195, Rn.40396, oral gavage, experiments of Table 3): 0.621
- Average Log (10) Ratio: mitogen-activated protein kinase 8 ([1]; rat liver, probe BE105603, Rn.4090, oral gavage, experiments of Table 3): −0.104
- Average Log (10) Ratio: ELOVL family member 6, elongation of long chain fatty acids (yeast) ([1]; rat liver, probe BF396857, Rn.46942, oral gavage, experiments of Table 3): 0.495
- Average Log (10) Ratio: sterol regulatory element binding factor 1 ([1]; rat liver, probe BF398848, Rn.801, oral gavage, experiments of Table 3): −0.461
- Average Log (10) Ratio: RIKEN cDNA 1500016L11 (DBSS) ([1]; rat liver, probe BF407188, Rn.15135, oral gavage, experiments of Table 3): −0.448
- Average Log (10) Ratio: monoglyceride lipase ([1]; rat liver, probe BG372713, Rn.40396, oral gavage, experiments of Table 3): 0.551
- Average Log (10) Ratio: Pyruvate carboxylase ([1]; rat liver, probe BG376902, Rn.11094, oral gavage, experiments of Table 3): −0.172
- Average Log (10) Ratio: acetyl CoA transferase-like (DBSS) ([1]; rat liver, probe BG377636, Rn.98393, oral gavage, experiments of Table 3): 0.519
- Average Log (10) Ratio: phospholipid transfer protein (DBSS) ([1]; rat liver, probe BI278687, Rn.117434, oral gavage, experiments of Table 3): −0.378
- Average Log (10) Ratio: guanine nucleotide binding protein, alpha stimulating, olfactory type ([1]; rat liver, probe BI281656, Rn.39132, oral gavage, experiments of Table 3): 0.107
- Average Log (10) Ratio: acetyl-Coenzyme A acyltransferase 2 (mitochondrial 3-oxoacyl-Coenzyme A thiolase) ([1]; rat liver, probe BI282488, Rn.3786, oral gavage, experiments of Table 3): 0.679
- Average Log (10) Ratio: glycerol-3-phosphate acyltransferase, mitochondrial ([1]; rat liver, probe BI288209, Rn.44456, oral gavage, experiments of Table 3): −0.183
- Average Log (10) Ratio: elongation of very long chain fatty acids (FEN1/Elo2, SUR4/Elo3, yeast)-like 3 (DBSS) ([1]; rat liver, probe BI292438, Rn.79322, oral gavage, experiments of Table 3): −0.042
- Average Log (10) Ratio: NCI_CGAP_Emb2 cDNA clone IMAGE: 4176354 ([1]; rat liver, probe BI850137, Rn.83595, oral gavage, experiments of Table 3): −0.414
- Average Log (10) Ratio: pyruvate dehydrogenase kinase, isoenzyme 3 (mapped) ([1]; rat liver, probe BM389330, Rn.18101, oral gavage, experiments of Table 3): −0.646
- Average Log (10) Ratio: 3-hydroxy-3-methylglutaryl-Coenzyme A reductase ([1]; rat liver, probe BM390399, Rn.9437, oral gavage, experiments of Table 3): 0.392
- Average Log (10) Ratio: sulfotransferase family 2A, dehydroepiandrosterone (DHEA)-preferring, member 1 ([1]; rat liver, probe D14989, Rn.91378, oral gavage, experiments of Table 3): 0.570
- Average Log (10) Ratio: apolipoprotein E ([1]; rat liver, probe J02582, Rn.32351, oral gavage, experiments of Table 3): −0.324
- Average Log (10) Ratio: stearoyl-Coenzyme A desaturase 1 ([1]; rat liver, probe J02585, Rn.1023, oral gavage, experiments of Table 3): −0.668
- Average Log (10) Ratio: apolipoprotein B ([1]; rat liver, probe M14952, Rn.33815, oral gavage, experiments of Table 3): −0.255
- Average Log (10) Ratio: NCI_CGAP_Emb2 cDNA clone IMAGE: 4176354 ([1]; rat liver, probe M15114, Rn.83595, oral gavage, experiments of Table 3): 0.409
- Average Log (10) Ratio: malic enzyme 1 ([1]; rat liver, probe M30596, Rn.161920, oral gavage, experiments of Table 3): 0.554
- Average Log (10) Ratio: glucokinase ([1]; rat liver, probe NM_012565, Rn.10447, oral gavage, experiments of Table 3): −1.066
- Average Log (10) Ratio: serine (or cysteine) peptidase inhibitor, clade E, member 1 ([1]; rat liver, probe NM_012620, Rn.29367, oral gavage, experiments of Table 3): 0.819
- Average Log (10) Ratio: adrenergic receptor, beta 1 ([1]; rat liver, probe NM_012701, Rn.87064, oral gavage, experiments of Table 3): −0.177
- Average Log (10) Ratio: hexokinase 2 ([1]; rat liver, probe NM_012735, Rn.91375, oral gavage, experiments of Table 3): −0.330
- Average Log (10) Ratio: guanylate cyclase 1, soluble, beta 3 ([1]; rat liver, probe NM_012769, Rn.87228, oral gavage, experiments of Table 3): −0.348
- Average Log (10) Ratio: guanylate cyclase 1, soluble, beta 2 ([1]; rat liver, probe NM_012770, Rn.10933, oral gavage, experiments of Table 3): −0.465
- Average Log (10) Ratio: mitogen activated protein kinase 10 ([1]; rat liver, probe NM_012806, Rn.9911, oral gavage, experiments of Table 3): 0.458
- Average Log (10) Ratio: carnitine palmitoyltransferase 2 ([1]; rat liver, probe NM_012930, Rn.11389, oral gavage, experiments of Table 3): 0.494
- Average Log (10) Ratio: 3-hydroxy-3-methylglutaryl-Coenzyme A reductase ([1]; rat liver, probe NM_013134, Rn.9437, oral gavage, experiments of Table 3): 0.389
- Average Log (10) Ratio: transforming growth factor, beta 3 ([1]; rat liver, probe NM_013174, Rn.7018, oral gavage, experiments of Table 3): −0.380
- Average Log (10) Ratio: carnitine palmitoyltransferase 1b, muscle ([1]; rat liver, probe NM_013200, Rn.6028, oral gavage, experiments of Table 3): 0.984
- Average Log (10) Ratio: solute carrier family 10, member 2 ([1]; rat liver, probe NM_017222, Rn.85891, oral gavage, experiments of Table 3): −0.544
- Average Log (10) Ratio: mitogen-activated protein kinase 9 ([1]; rat liver, probe NM_017322, Rn.9910, oral gavage, experiments of Table 3): −0.348
- Average Log (10) Ratio: acyl-Coenzyme A oxidase 1, palmitoyl ([1]; rat liver, probe NM_017340, Rn.31796, oral gavage, experiments of Table 3): 0.336
- Average Log (10) Ratio: transforming growth factor, beta 1 ([1]; rat liver, probe NM_021578, Rn.40136, oral gavage, experiments of Table 3): −0.592
- Average Log (10) Ratio: protein kinase, AMP-activated, beta 2 non-catalytic subunit ([1]; rat liver, probe NM_022627, Rn.15423, oral gavage, experiments of Table 3): −0.211
- Average Log (10) Ratio: transforming growth factor, beta 2 ([1]; rat liver, probe NM_031131, Rn.24539, oral gavage, experiments of Table 3): 0.020
- Average Log (10) Ratio: carnitine palmitoyltransferase 1a, liver ([1]; rat liver, probe NM_031559, Rn.2856, oral gavage, experiments of Table 3): 0.264
- Average Log (10) Ratio: protein kinase, AMP-activated, beta 1 non-catalytic subunit ([1]; rat liver, probe NM_031976, Rn.3619, oral gavage, experiments of Table 3): −0.409
- Average Log (10) Ratio: ATP-binding cassette, sub-family D (ALD), member 1 (DBSS) ([1]; rat liver, probe NM_033352, Rn.177278, oral gavage, experiments of Table 3): 0.450
- Average Log (10) Ratio: insulin-like growth factor binding protein, acid labile subunit ([1]; rat liver, probe NM_053329, Rn.164865, oral gavage, experiments of Table 3): −0.658
- Average Log (10) Ratio: pyruvate dehydrogenase kinase, isoenzyme 4 ([1]; rat liver, probe NM_053551, Rn.30070, oral gavage, experiments of Table 3): 0.442
- Average Log (10) Ratio: phosphatidylinositol 3-kinase, C2 domain containing, gamma polypeptide ([1]; rat liver, probe NM_053923, Rn.169550, oral gavage, experiments of Table 3): −0.485
- Average Log (10) Ratio: pyruvate dehydrogenase E1 alpha 2 ([1]; rat liver, probe NM_053994, Rn.11126, oral gavage, experiments of Table 3): −0.338
- Average Log (10) Ratio: nuclear receptor subfamily 0, group B, member 2 ([1]; rat liver, probe NM_057133, Rn.10712, oral gavage, experiments of Table 3): 0.367
- Average Log (10) Ratio: hydroxyacyl-Coenzyme A dehydrogenase/3-ketoacyl-Coenzyme A thiolase/enoyl-Coenzyme A hydratase (trifunctional protein), beta subunit ([1]; rat liver, probe NM_133618, Rn.11253, oral gavage, experiments of Table 3): 0.409
- Average Log (10) Ratio: ELOVL family member 5, elongation of long chain fatty acids (yeast) ([1]; rat liver, probe NM_134382, Rn.4243, oral gavage, experiments of Table 3): −0.486
- Average Log (10) Ratio: Glycerol-3-phosphate dehydrate dehydrogenase (mtGPDH) mRNA, 3′UTR ([1]; rat liver, probe U08027, Rn.89705, oral gavage, experiments of Table 3): 0.635
- Average Log (10) Ratio: glycerol-3-phosphate acyltransferase, mitochondrial ([1]; rat liver, probe U36771, Rn.44456, oral gavage, experiments of Table 3): −0.156
- Average Log (10) Ratio: Cytochrome P450, family 2, subfamily b, polypeptide 2 ([1]; rat, in vivo, po): 0.629
- Average Log (10) Ratio: cytochrome P450, family 2, subfamily b, polypeptide 13 ([1]; rat, in vivo, po): 0.499
- Average Log (10) Ratio: cytochrome P450, family 3, subfamily a, polypeptide 13 ([1]; rat, in vivo, po): 0.550
- Average Log (10) Ratio: cytochrome P450, family 7, subfamily a, polypeptide 1 ([1]; rat, in vivo, po): −0.168
- Average Log (10) Ratio: cytochrome P450, family 8, subfamily b, polypeptide 1 ([1]; rat, in vivo, po): 0.394
- risk of cardiovascular events [2]: paradoxically increased risk of cardiovascular events
